Our source for the IC50 values is ChEMBL document CHEMBL1134192, “Targeting RNA with peptidomimetic oligomers in human cells” (Bioorg Med Chem Lett, 2001).

As usually defined, the IC50 is the concentration that gives 50% inhibition.

For the assay, the species on record is Homo sapiens. The assay is described as follows: Concentration that inhibits transcriptional activation of Tat protein in human cells. The assay is classed as functional, cell-based.

The compound `NCCCC[C@H](CNC(=O)N[C@H](CCCCN)CNC(=O)N[C@H](CCCN=C(N)N)CNC(=O)N[C@H](CCCN=C(N)N)CNC(=O)N[C@H](CCC(N)=O)CNC(=O)N[C@H](CCCN=C(N)N)CNC(=O)N[C@H](CCCN=C(N)N)CNC(=O)N[C@H](CCCN=C(N)N)CNC(=O)[C@@H](N)Cc1ccc(O)cc1)NC(=O)NC[C@@H](CCCN=C(N)N)NC(=O)NCCNC(N)=O` registered an IC50 of 1000 nM.
As to `N=C(N)NCCC[C@@H](COC(=O)N[C@@H](CCCCN)COC(=O)N[C@@H](CCCCN)COC(=O)N[C@@H](CCCN=C(N)N)COC(=O)N[C@@H](CCCN=C(N)N)COC(=O)N[C@@H](CCC(N)=O)COC(=O)N[C@@H](CCCN=C(N)N)COC(=O)N[C@@H](CCCN=C(N)N)COC(=O)N[C@@H](CCCN=C(N)N)C(=O)O)NC(=O)OCCNC(=O)[C@@H](N)Cc1ccc(O)cc1`, the IC50 is 500 nM.
